Results reported in ChEMBL document CHEMBL2163280 (J Med Chem, 2012).
The source made the active and inactive calls. The calls are words filed in the database; no cut-off is given here.

Tests used:
[1] = molecular target: Acetylcholine receptor; alpha1/beta1/delta/gamma (Homo sapiens) (UniProt P02708+P07510+P11230+Q07001); test: Agonist activity at alpha1betagammadelta nACHR in human TE671/RD cells by 86Rb+ efflux assay; type: functional, cell-based
[2] = molecular target: Neuronal acetylcholine receptor; alpha4/beta2 (Rattus norvegicus, UniProt P09483+P12390); test: Displacement of [3H]epibatidine from rat alpha4beta2 nACHR; type: protein-complex assay
[3] = molecular target: Neuronal acetylcholine receptor; alpha2/beta4 (Rattus norvegicus) (UniProt P12389+P12392); test: Displacement of [3H]epibatidine from rat alpha2beta4 nACHR at 10 uM; type: protein-complex assay
[4] = molecular target: Neuronal acetylcholine receptor; alpha4/beta4 (Rattus norvegicus) (UniProt P09483+P12392); test: Displacement of [3H]epibatidine from rat alpha4beta4 nACHR at 10 uM; type: protein-complex assay
[5] = molecular target: Neuronal acetylcholine receptor; alpha3/beta2 (Rattus norvegicus) (UniProt P04757+P12390); test: Displacement of [3H]epibatidine from rat alpha3beta2 nACHR at 10 uM; type: protein-complex assay
[6] = molecular target: Neuronal acetylcholine receptor; alpha3/beta4 (Rattus norvegicus) (UniProt P04757+P12392); test: Displacement of [3H]epibatidine from rat alpha3beta4 nACHR at 10 uM; type: protein-complex assay
[7] = system: Neuronal acetylcholine receptor alpha2/beta2 rat; test: Displacement of [3H]epibatidine from rat alpha2beta2 nACHR at 10 uM
[8] = molecular target: Neuronal acetylcholine receptor; alpha4/beta2 (Rattus norvegicus) (UniProt P09483+P12390); test: Displacement of [3H]epibatidine from rat alpha4beta2 nACHR at 10 uM; type: protein-complex assay
Rattus norvegicus = species: Rattus norvegicus; test: Displacement of [3H]epibatidine from rat forebrain alpha4beta2* nACHR at 10 uM

Sequence of Neuronal acetylcholine receptor; alpha4/beta2 (P09483 whole entry): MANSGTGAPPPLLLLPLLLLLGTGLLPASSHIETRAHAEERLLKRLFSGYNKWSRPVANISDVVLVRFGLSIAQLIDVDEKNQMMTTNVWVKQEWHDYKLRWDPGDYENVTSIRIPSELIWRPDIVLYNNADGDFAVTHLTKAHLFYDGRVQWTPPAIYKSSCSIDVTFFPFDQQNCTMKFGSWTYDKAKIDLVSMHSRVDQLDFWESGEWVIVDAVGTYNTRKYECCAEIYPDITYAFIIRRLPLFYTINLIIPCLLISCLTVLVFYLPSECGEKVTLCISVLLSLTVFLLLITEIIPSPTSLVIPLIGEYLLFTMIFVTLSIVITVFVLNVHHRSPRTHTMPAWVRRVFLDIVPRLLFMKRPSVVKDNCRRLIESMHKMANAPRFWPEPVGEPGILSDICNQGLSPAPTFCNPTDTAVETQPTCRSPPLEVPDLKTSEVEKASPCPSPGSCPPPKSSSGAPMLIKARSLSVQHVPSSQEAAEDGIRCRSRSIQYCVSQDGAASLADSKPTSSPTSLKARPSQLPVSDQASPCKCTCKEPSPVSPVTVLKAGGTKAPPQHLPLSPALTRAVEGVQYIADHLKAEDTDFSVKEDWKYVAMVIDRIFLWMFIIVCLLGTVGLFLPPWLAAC
Sequence of Neuronal acetylcholine receptor; alpha4/beta2 (P12390 whole entry): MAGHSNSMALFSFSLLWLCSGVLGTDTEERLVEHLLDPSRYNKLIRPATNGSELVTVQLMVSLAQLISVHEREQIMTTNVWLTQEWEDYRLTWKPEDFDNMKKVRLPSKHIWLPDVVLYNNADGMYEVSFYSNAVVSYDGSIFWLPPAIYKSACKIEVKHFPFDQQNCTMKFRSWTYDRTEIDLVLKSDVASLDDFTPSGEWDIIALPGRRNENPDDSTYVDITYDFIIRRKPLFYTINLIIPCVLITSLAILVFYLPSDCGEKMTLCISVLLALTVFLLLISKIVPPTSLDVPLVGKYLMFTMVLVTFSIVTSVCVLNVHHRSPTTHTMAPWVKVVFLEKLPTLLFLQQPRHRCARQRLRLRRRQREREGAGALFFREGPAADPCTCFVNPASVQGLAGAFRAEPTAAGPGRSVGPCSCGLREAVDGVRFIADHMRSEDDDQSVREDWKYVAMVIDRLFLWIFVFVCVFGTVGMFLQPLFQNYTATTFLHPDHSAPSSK

Structure (SMILES): Fc1ccc(NCc2cc(OC[C@@H]3CCN3)on2)cc1
- Activity [1]: inactive

Structure (SMILES): Cc1cc([C@@H]2CCCN2C)on1 [ABT-418]
- Ki [2]: 7.4 nM

Structure (SMILES): O=C(NC1CCCC1)OCc1cc(OC[C@@H]2CCN2)on1
- Activity [1]: inactive

Structure (SMILES): c1ccc(OCc2cc(OC[C@@H]3CCN3)no2)cc1
- Activity [3]: < 50%
- Activity [4]: < 50%
- Activity [5]: < 50%
- Activity [1]: inactive
- Activity [6]: < 50%
- Activity [7]: < 50%
- Activity [8]: < 50%
- Activity (Rattus norvegicus): < 50%

Structure (SMILES): Cc1cc(OC[C@@H]2CCCN2)on1
- Activity [1]: inactive
